Read-outs that look alike come from different tables or passages of the source.
Columns and labels:
human μ-opioid receptor = target: T1, human μ-opioid receptor (Homo sapiens, UniProt P35372); test: Human μ-opioid receptor radioligand assay ([3H]-DAMGO); type: binding
T1 construct: expressed in transfected cells; host or cells: CHO-K1
Description: Human μ-Opioid Receptor Radioligand Assay
To investigate binding properties of test compounds to human μ-opioid receptor, transfected CHO-K1 cell membranes and [^3H]-DAMGO (Perkin Elmer, ES-542-C), as the radioligand, were used. The assay was carried out with 20 μg of membrane suspension, 1 nM of [^3H]-DAMGO in either absence or presence of either buffer or 10 μM Naloxone for total and non-specific binding, respectively. Binding buffer contained Tris-HCl 50 mM, MgCl2 5 mM at pH 7.4. Plates were incubated at 27° C. for 60 minutes. After the incubation period, the reaction mix was then transferred to MultiScreen HTS, FC plates (Millipore), filtered and plates were washed 3 times with ice-cold 10 mM Tris-HCL (pH 7.4). Filters were dried and counted at approximately 40% efficiency in a MicroBeta scintillation counter (Perkin-Elmer) using EcoScint liquid scintillation cocktail. Preferably, transfected CHO-K1 cell membranes (20 μg) were incubated with 1 nM of [^3H]-DAMGO in assay buffer containing Tris-HCl 50 mM, MgCl2 5 mM at pH 7.4. NBS (non-specific binding) was measured by adding 10 μM Naloxone. The binding of the test compound was measured at five different concentrations. Plates were incubated at 27° C. for 60 minutes. After the incubation period, the reaction mix was then transferred to MultiScreen HTS, FC plates (Millipore), filtered and plates were washed 3 times with ice-cold 10 mM Tris-HCL (pH 7.4). Filters were dried and counted at approximately 40% efficiency in a MicroBeta scintillation counter (Perkin-Elmer) using EcoScint liquid scintillation cocktail.

[1] = target: Human α2δ-1 subunit of Cav2.2 calcium channel (Homo sapiens, UniProt P54289); test: Human α2δ-1 subunit of Cav2.2 calcium channel assay ([3H]-Gabapentin binding); settings: human α2δ-1 enriched membranes, 15 nM [3H]-Gabapentin, binding expressed as Ki; read-out: α2δ1 binding activity
Description: Human α2δ-1 Subunit of Cav2.2 Calcium Channel Assay
Human α2δ-1 enriched membranes (2.5 μg) were incubated with 15 nM of radiolabeled [3H]-Gabapentin in assay buffer containing Hepes-KOH 10 mM, pH 7.4. NSB (non specific binding) was measured by adding 10 μM pregabalin. The binding of the test compound was measured at five different concentrations. After 60 min incubation at 27° C., binding reaction was terminated by filtering through Multiscreen GF/C (Millipore) presoaked in 0.5% polyethyleneimine in Vacuum Manifold Station, followed by 3 washes with ice-cold filtration buffer containing 50 mM Tris-HCl, pH 7.4. Filter plates were dried at 60° C. for 1 hour and 30 μl of scintillation cocktail were added to each well before radioactivity reading. Readings were performed in a Trilux 1450 Microbeta radioactive counter (Perkin Elmer).

[2] = transfected CHO-K1 cell membranes, 1 nM [3H]-DAMGO, binding expressed as Ki, read-out: Mu binding activity

T1 sequence (P35372 whole entry): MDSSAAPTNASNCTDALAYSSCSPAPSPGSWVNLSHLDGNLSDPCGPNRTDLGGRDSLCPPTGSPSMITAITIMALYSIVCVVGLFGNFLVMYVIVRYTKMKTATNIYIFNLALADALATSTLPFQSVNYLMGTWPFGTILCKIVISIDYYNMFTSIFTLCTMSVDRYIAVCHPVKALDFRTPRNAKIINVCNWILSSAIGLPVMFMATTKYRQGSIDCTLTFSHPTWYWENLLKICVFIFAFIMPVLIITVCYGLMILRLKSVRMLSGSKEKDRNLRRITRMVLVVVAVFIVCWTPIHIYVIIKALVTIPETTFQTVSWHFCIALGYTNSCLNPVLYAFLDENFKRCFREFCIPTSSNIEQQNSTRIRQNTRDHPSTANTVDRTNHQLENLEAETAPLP
Sequence of Human α2δ-1 subunit of Cav2.2 calcium channel (P54289 25-1103): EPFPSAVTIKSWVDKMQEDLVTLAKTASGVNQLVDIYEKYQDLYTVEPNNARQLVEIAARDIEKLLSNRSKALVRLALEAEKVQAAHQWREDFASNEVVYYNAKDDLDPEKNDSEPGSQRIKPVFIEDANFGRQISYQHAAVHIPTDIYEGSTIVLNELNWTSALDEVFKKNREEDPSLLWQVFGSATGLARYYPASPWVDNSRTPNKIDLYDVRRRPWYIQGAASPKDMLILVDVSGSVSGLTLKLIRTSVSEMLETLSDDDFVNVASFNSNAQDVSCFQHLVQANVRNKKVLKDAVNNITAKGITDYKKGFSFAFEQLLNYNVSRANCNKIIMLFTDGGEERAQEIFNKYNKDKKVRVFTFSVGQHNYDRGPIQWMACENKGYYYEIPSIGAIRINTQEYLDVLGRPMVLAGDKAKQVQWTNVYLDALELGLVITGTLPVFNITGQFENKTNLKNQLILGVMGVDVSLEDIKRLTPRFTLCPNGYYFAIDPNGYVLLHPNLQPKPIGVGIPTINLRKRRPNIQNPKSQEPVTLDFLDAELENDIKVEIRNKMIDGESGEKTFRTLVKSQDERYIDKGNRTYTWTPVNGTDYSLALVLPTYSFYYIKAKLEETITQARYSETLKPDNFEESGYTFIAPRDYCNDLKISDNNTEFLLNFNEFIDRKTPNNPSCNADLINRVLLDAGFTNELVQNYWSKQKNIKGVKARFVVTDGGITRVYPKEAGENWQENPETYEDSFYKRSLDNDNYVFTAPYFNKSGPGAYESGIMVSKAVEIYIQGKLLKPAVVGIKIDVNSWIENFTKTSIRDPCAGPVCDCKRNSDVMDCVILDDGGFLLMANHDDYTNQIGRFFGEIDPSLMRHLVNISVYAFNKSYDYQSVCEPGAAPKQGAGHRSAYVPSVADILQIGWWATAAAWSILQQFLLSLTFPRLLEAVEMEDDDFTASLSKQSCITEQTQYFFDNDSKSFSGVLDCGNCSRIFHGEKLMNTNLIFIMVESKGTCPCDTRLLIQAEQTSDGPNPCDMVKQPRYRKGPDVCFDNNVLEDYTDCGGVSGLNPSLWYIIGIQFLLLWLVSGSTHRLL

## CCOc1ccc(-n2nc3c(C4CCN(Cc5ccccn5)CC4)nnc(C)c3c2C)c(F)c1 [Ex 28, 2-(4-Ethoxy-2-fluorophenyl)-3,4-dimethyl-7-(1-(pyridin-2-ylmethyl)piperidin-4-yl)-2H-pyrazolo[3,4-d]pyridazine]
Human μ-opioid receptor
  Ki: < 500 nM
[1]
  Ki: 500 to 3000 nM

## CCOc1ccc(-n2nc3c(C4CCN(Cc5cccnc5)CC4)nnc(C)c3c2C)c(F)c1 [Ex 29, 2-(4-Ethoxy-2-fluorophenyl)-3,4-dimethyl-7-(1-(pyridin-3-ylmethyl)piperidin-4-yl)-2H-pyrazolo[3,4-d]pyridazine]
Human μ-opioid receptor; [2]
  Ki: > 500 nM
[1]
  Ki: 500 to 3000 nM

## CCOc1ccc(-n2nc3c(C4CCN(Cc5ccncc5)CC4)nnc(C)c3c2C)c(F)c1 [Ex 30, 2-(4-Ethoxy-2-fluorophenyl)-3,4-dimethyl-7-(1-(pyridin-4-ylmethyl)piperidin-4-yl)-2H-pyrazolo[3,4-d]pyridazine]
Human μ-opioid receptor; [2]
  Ki: > 500 nM
[1]
  Ki: 500 to 3000 nM

## CCOc1ccc(-n2nc3c(C4CCN(Cc5ncccc5O)CC4)nnc(C)c3c2C)c(F)c1 [Ex 31, 2-((4-(2-(4-Ethoxy-2-fluorophenyl)-3,4-dimethyl-2H-pyrazolo[3,4-d]pyridazin-7-yl)piperidin-1-yl)methyl)pyridin-3-ol]
Human μ-opioid receptor; [2]
  Ki: > 500 nM
[1]
  Ki: 500 to 3000 nM

## CCOc1ccc(-n2nc3c(C4CCN(CC5CC5)CC4)nnc(C)c3c2C)c(F)c1 [Ex 32, 7-(1-(Cyclopropyl-methyl)piperidin-4-yl)-2-(4-ethoxy-2-fluorophenyl)-3,4-dimethyl-2H-pyrazolo[3,4-d]pyridazine]
Human μ-opioid receptor; [2]
  Ki: > 500 nM
[1]
  Ki: 500 to 3000 nM

## CCOc1ccc(-n2nc3c(C4CCN(CC5CCOCC5)CC4)nnc(C)c3c2C)c(F)c1 [Ex 33, 2-(4-Ethoxy-2-fluorophenyl)-3,4-dimethyl-7-(1-((tetrahydro-2H-pyran-4-yl)methyl)piperidin-4-yl)-2H-pyrazolo[3,4-d]pyridazine]
Human μ-opioid receptor; [2]
  Ki: > 500 nM
[1]
  Ki: 500 to 3000 nM

## CCOc1ccc(-n2nc3c(C4CCN(CCC5CCOCC5)CC4)nnc(C)c3c2C)c(F)c1 [Ex 34, 2-(4-Ethoxy-2-fluorophenyl)-3,4-dimethyl-7-(1-(2-(tetrahydro-2H-pyran-4-yl)ethyl)piperidin-4-yl)-2H-pyrazolo[3,4-d]pyridazine]
Human μ-opioid receptor; [2]
  Ki: > 500 nM
[1]
  Ki: 3000 to 5000 nM

## CCOc1ccc(-n2nc3c(C4CCN(Cc5cn(Cc6ccccn6)nn5)CC4)nnc(C)c3c2C)c(F)c1 [Ex 35, 2-(4-Ethoxy-2-fluorophenyl)-3,4-dimethyl-7-(1-((1-(pyridin-2-ylmethyl)-1H-1,2,3-triazol-4-yl)methyl)piperidin-4-yl)-2H-pyrazolo[3,4-d]pyridazine]
Human μ-opioid receptor; [2]
  Ki: > 500 nM
[1]
  Ki: 500 to 3000 nM

## CCOc1ccc(-n2nc3c(C4CCCN(Cc5ccccc5)C4)nnc(C)c3c2C)c(F)c1 (stereo not shown) [Ex 36, 7-(1-Benzylpiperidin-3-yl)-2-(4-ethoxy-2-fluorophenyl)-3,4-dimethyl-2H-pyrazolo[3,4-d]pyridazine]
Human μ-opioid receptor; [2]
  Ki: > 500 nM
[1]
  Ki: 500 to 3000 nM

## CCOc1ccc(-n2nc3c(C4CN(CCc5ccccc5)C4)nnc(C)c3c2C)c(F)c1 [Ex 37, 2-(4-Ethoxy-2-fluorophenyl)-3,4-dimethyl-7-(1-phenethylazetidin-3-yl)-2H-pyrazolo[3,4-d]pyridazine]
Human μ-opioid receptor; [2]
  Ki: > 500 nM
[1]
  Ki: 500 to 3000 nM

## CCOc1ccc(-n2nc3c(CCCNCc4ccccc4)nnc(C)c3c2C)c(F)c1 [Ex 38, N-Benzyl-3-(2-(4-ethoxy-2-fluorophenyl)-3,4-dimethyl-2H-pyrazolo[3,4-d]pyridazin-7-yl)propan-1-amine]
Human μ-opioid receptor; [2]
  Ki: > 500 nM
[1]
  Ki: 500 to 3000 nM

## CCOc1ccc(-n2nc3c(CCCN(C)CCc4ccccc4)nnc(C)c3c2C)c(F)c1 [Ex 39, 3-(2-(4-Ethoxy-2-fluorophenyl)-3,4-dimethyl-2H-pyrazolo[3,4-d]pyridazin-7-yl)-N-methyl-N-phenethylpropan-1-amine]
Human μ-opioid receptor; [2]
  Ki: > 500 nM
[1]
  Ki: 500 to 3000 nM

## CCOc1ccc(-n2nc3c(CCNCc4ccccc4)nnc(C)c3c2C)c(F)c1 [Ex 40, N-Benzyl-2-(2-(4-ethoxy-2-fluorophenyl)-3,4-dimethyl-2H-pyrazolo[3,4-d]pyridazin-7-yl)ethan-1-amine]
Human μ-opioid receptor; [2]
  Ki: > 500 nM
[1]
  Ki: ≥ 5000 nM

## CCOc1ccc(-n2nc3c(CCNCCc4ccccc4)nnc(C)c3c2C)c(F)c1 [Ex 41, 2-(2-(4-Ethoxy-2-fluorophenyl)-3,4-dimethyl-2H-pyrazolo[3,4-d]pyridazin-7-yl)-N-phenethylethan-1-amine]
Human μ-opioid receptor; [2]
  Ki: > 500 nM
[1]
  Ki: ≥ 5000 nM

## CCOc1ccc(-n2nc3c(C4CCN(CCc5ccccn5)CC4)nnc(C)c3c2C)c(F)c1 [Ex 42, 2-(4-Ethoxy-2-fluorophenyl)-3,4-dimethyl-7-(1-(2-(pyridin-2-yl)ethyl)piperidin-4-yl)-2H-pyrazolo[3,4-d]pyridazine]
Human μ-opioid receptor; [2]
  Ki: > 500 nM
[1]
  Ki: 500 to 3000 nM

## CCOc1ccc(-n2nc3c(C4CCN(CCc5ccccc5F)CC4)nnc(C)c3c2C)c(F)c1 [Ex 43, 2-(4-Ethoxy-2-fluorophenyl)-7-(1-(2-fluorophenethyl)piperidin-4-yl)-3,4-dimethyl-2H-pyrazolo[3,4-d]pyridazine]
Human μ-opioid receptor
  Ki: < 500 nM
[1]
  Ki: 500 to 3000 nM

## CCOc1ccc(-n2nc3c(C4CCN(CCc5cccc(F)c5)CC4)nnc(C)c3c2C)c(F)c1 [Ex 44, 2-(4-Ethoxy-2-fluorophenyl)-7-(1-(3-fluorophenethyl)piperidin-4-yl)-3,4-dimethyl-2H-pyrazolo[3,4-d]pyridazine]
Human μ-opioid receptor
  Ki: < 500 nM
[1]
  Ki: 500 to 3000 nM

## CCOc1ccc(-n2nc3c(C4CCN(CCc5cccc(OC)c5)CC4)nnc(C)c3c2C)c(F)c1 [Ex 45, 2-(4-Ethoxy-2-fluorophenyl)-7-(1-(3-methoxyphenethyl)piperidin-4-yl)-3,4-dimethyl-2H-pyrazolo[3,4-d]pyridazine]
Human μ-opioid receptor; [2]
  Ki: > 500 nM
[1]
  Ki: 500 to 3000 nM

## CCOc1ccc(-n2nc3c(C4CCN(CCc5ccc(F)cc5)CC4)nnc(C)c3c2C)c(F)c1 [Ex 46, 2-(4-Ethoxy-2-fluorophenyl)-7-(1-(4-fluorophenethyl)piperidin-4-yl)-3,4-dimethyl-2H-pyrazolo[3,4-d]pyridazine]
Human μ-opioid receptor; [2]
  Ki: > 500 nM
[1]
  Ki: 500 to 3000 nM

## CCOc1ccc(-n2nc3c(C4CCN(CCc5cccnc5)CC4)nnc(C)c3c2C)c(F)c1 [Ex 47, 2-(4-Ethoxy-2-fluorophenyl)-3,4-dimethyl-7-(1-(2-(pyridin-3-yl)ethyl)piperidin-4-yl)-2H-pyrazolo[3,4-d]pyridazine]
Human μ-opioid receptor; [2]
  Ki: > 500 nM
[1]
  Ki: 500 to 3000 nM

## CCOc1ccc(-n2nc3c(C4CCN(Cc5ncccc5F)CC4)nnc(C)c3c2C)c(F)c1 [Ex 48, 2-(4-Ethoxy-2-fluorophenyl)-7-(1-((3-fluoropyridin-2-yl)methyl)piperidin-4-yl)-3,4-dimethyl-2H-pyrazolo[3,4-d]pyridazine]
Human μ-opioid receptor; [2]
  Ki: > 500 nM
[1]
  Ki: 500 to 3000 nM

## CCOc1ccc(-n2nc3c(C4CCN(Cc5ncccc5C(F)(F)F)CC4)nnc(C)c3c2C)c(F)c1 [Ex 49, 2-(4-Ethoxy-2-fluorophenyl)-3,4-dimethyl-7-(1-((3-(trifluoromethyl)pyridin-2-yl)methyl)piperidin-4-yl)-2H-pyrazolo[3,4-d]pyridazine]
Human μ-opioid receptor; [2]
  Ki: > 500 nM
[1]
  Ki: 500 to 3000 nM

## CCOc1ccc(-n2nc3c(C4CCN(Cc5ncccc5OC)CC4)nnc(C)c3c2C)c(F)c1 [Ex 50, 2-(4-Ethoxy-2-fluorophenyl)-7-(1-((3-methoxypyridin-2-yl)methyl)piperidin-4-yl)-3,4-dimethyl-2H-pyrazolo[3,4-d]pyridazine]
Human μ-opioid receptor; [2]
  Ki: > 500 nM
[1]
  Ki: 500 to 3000 nM

Reference: patent publication US20200190087A1 (priority 2016, published 2020)
